Measurements reported in publication PMC6130654 (Pharmaceutical Biology, 2016).

Tests used:
[1] = test system: ABC transporter coupling ATPase; assay: ABC transporter-related ATPase activity assay on small intestine membrane proteins; type: in vivo, mice; settings: mouse small intestine, intragastric, seven days, p < 0.05
Text: Healthy male ICR mice (18-22 g of body weight) were purchased from SPF Animal Centre of […] Medical University ([…], China). […] The drugs were administrated intragastrically for seven consecutive days.

P-gp = P-gp expression levels in small intestine by western blot analysis; type: in vivo, ICR mice; settings: mouse small intestine, intragastric, seven days; for P-gp expression compared with negative control: normalized to Na+-K+-ATPase
Procedure: Healthy male ICR mice (18-22 g of body weight) were purchased from SPF Animal Centre of […] Medical University ([…], China). […] The drugs were administrated intragastrically for seven consecutive days. Membrane proteins were harvested by […] Membrane and Plasma Protein Purification Kit ([…], Nanjing, China), and the protein concentrations were determined using KeyGEN BCA Protein Quantitation Assay kit ([…], Nanjing, China). An equal quantity of protein (48 μg) from membrane protein was resolved using 7.5% SDS-PAGE gel and subsequently transferred onto nitrocellulose membranes (Bio-Trace, Auckland, New Zealand). […] Antibodies were both purchased from Abcam (Cambridge, United Kingdom). The membranes were incubated with horseradish peroxidase-conjugated AffiniPure Goat Anti-Rabbit IgG (ZSGB-BIO, Beijing, China) for 1 h and signals were observed using SuperSignal West Pico (Thermo Scientific, Waltham, MA). Western blotting bands intensity was quantified by densitometric analysis using Image J version 2 × (NIH Image Software, […]).

[2] = ref Wei et al. [2015]; cited from earlier work
rat CYP3A = settings: ref Wei et al. [2015]; cited from earlier work
Plasmodium berghei = test system: Plasmodium berghei; parameters: method as in Wei et al. [2015]; settings: ref Wei et al. [2015]; cited from earlier work
MDR1 mRNA = assay: MDR1 expression in small intestine determined by RT-qPCR; settings: mouse small intestine; intragastric, seven days; verapamil 40 mg/kg, ART-verapamil 1:1, ART-CHR all ratios, CHR alone 80 mg/kg; p < 0.01
Procedure: All animals were housed in polycarbonate cages and acclimated in an environmentally controlled room (23 ± 2 °C, with adequate ventilation and a 12 h light/dark cycle) prior to use. All animals were provided with standard laboratory food and water before and during the experiments. […] The drugs were administrated intragastrically for seven consecutive days.
The mice were euthanized by cervical vertebra dislocation. Small intestines were harvested and cleaned using normal saline at least three times. Total RNA was extracted from the mouse small intestine using E.Z.N.A.^TM Total RNA Kit (OMEGA Bio-Tek, Norcross, GA), in accordance with the instructions of the manufacturer. RNA concentrations were measured with a microplate spectrophotometer (Bio-RAD, Hercules, CA) at 260 nm. RNA quality was evaluated using electrophoresis in 1% agarose gels. Total RNA (3 μg) was reverse transcribed into first-strand complementary DNA (cDNA) using Thermo Scientific RevertAid First Strand cDNA Synthesis Kit (Thermo Scientific, Waltham, MA). Each cDNA sample (1 μL) was amplified with 12 μL Thermo Scientific Maxima SYBR Green qPCR Master Mix (2×). ROX Solution provided (Thermo Scientific, Waltham, MA) and 1 μmol of each primer. […]

SMILES	ATPase activity versus the vehicle ([1]; ART 40 mg/kg, verapamil 40 mg/kg)	P-gp expression compared with negative control (P-gp)	ATPase activity compared with ART alone ([1]; ART-CHR 1:4 (40:160 mg/kg), CHR alone 80 mg/kg)	effect of CHR on rat plasma concentration of ART [2]	P-gp expression levels compared with ART alone (P-gp; ART-verapamil (1:1), ART-CHR (1:0.1, 1:1, 1:2, 1:4), CHR alone, p < 0.05 and p < 0.01)	manner of inhibition of rat CYP3A (rat CYP3A)	effect of CHR on anti-malarial efficacy of ART (Plasmodium berghei)	MDR1 mRNA expression compared with ART alone (MDR1 mRNA)
C[C@@H]1CC[C@H]2[C@@H](C)C(=O)O[C@@H]3O[C@@]4(C)CC[C@@H]1[C@]32OO4 [ART, artemisinin, reference compound]	remarkably decreased	up-regulated						
COc1cc(-c2oc3cc(OC)c(OC)c(O)c3c(=O)c2OC)ccc1O [CHR, Chrysosplenetin]		No significant difference	slight increase	significantly increased	significantly decreased	uncompetitive	significantly increased	reversed to normal levels
